This assay deals with Kollagen-Synthese. The experiment in a line: Cellular test of collagen synthesis (method of Suh et al.; Biocolor collagen assay, detects collagen types I-IV). Type of assay: cell-based. From the text:
In einem zellulären Test wurde die Wirkung von Vitamin K1 und Lutein auf die Kollagen-Synthese untersucht. Die Untersuchung erfolgte nach dem in Suh et al. (Biol Pharm Bull. 2009 Apr; 32(4):746-9) beschriebenen Verfahren. Das gebildete Kollagen wurde mit Hilfe eines Standardassays (Firma Biocolor Ltd., Carrickfergus, Großbritannien) bestimmt. Der Assay war in der Lage, Kollagen des Typs I-IV zu erfassen.

SMILES strings stand for the structures.

In the case of `CC1=C(C/C=C(\C)CCC[C@H](C)CCC[C@H](C)CCCC(C)C)C(=O)c2ccccc2C1=O` [Vitamin K, Vitamin K1], the activity at 0.5 µM (Vitamin K 0,5 µM, Kontrolle = 100 %, read-out: Kollagen (relativ)) turned out to be 116%. Further, the activation at 0.5 µM (Vitamin K 0,5 µM, increase over control, read-out: Erhöhung (Kollagen)) turned out to be 16%.
Turning to `CC1=C[C@H](O)CC(C)(C)[C@H]1/C=C/C(C)=C/C=C/C(C)=C/C=C/C=C(C)/C=C/C=C(C)/C=C/C1=C(C)C[C@@H](O)CC1(C)C` [Lutein, (3R,6'R)-β-ε-Carotin-3,3'-diol], the activity at 2 µM (Lutein 2 µM, Kontrolle = 100 %, read-out: Kollagen (relativ)) was determined as 105%. Moreover, the activation at 2 µM (Lutein 2 µM, increase over control, read-out: Erhöhung (Kollagen)) was found to be 5%.

For the origin of these results see patent publication EP3427727A1, “COMBINATION OF BIOLOGICALLY ACTIVE SUBSTANCES FOR STABILIZING OR INCREASING THE COLLAGEN CONTENT” (BioActive Food GmbH, priority 2017, dated 2019).
